According to US20150018417A1, “FATTY ACIDS AS ANTI-INFLAMMATORY AGENTS” (University of Pittsburgh - Of the Commonwealth System of …, priority 2012, published 2015):
pEC50: −log10 of the molar value. Entries after “also recorded” stand apart in the source; their conditions may differ. Values belong to the compound of their own block, whether it stands above or below them.

What was measured:
RAW264.7 cells [1] = experiment: EFAD formation in activated RAW264.7 cells treated with inhibitors; type: cell-based, murine
GAPDH = GAPDH (Oryctolagus cuniculus, UniProt P46406); experiment: In vitro alkylation of GAPDH, mass spectrometric analysis; type: biochemical, rabbit
From the text: FIG. 21 illustrates the mass spectrometric analysis of an in vitro reaction of GAPDHvith EFAD-2. Four residues were detected and confirmed-as being targets for EfAD-2 in treated rabbit GAPDH. The peptides were alkylated as Cys244 (a), His163 (b), Cys149 (c) and His328 (d). Upper panels show EFAD-2 modified peptides and lower panels show spectra from corresponding native peptide.
To more specifically test the binding of EFADs to nucleophilic residues in proteins, we tested whether GAPDH was alkylated by EFADs. This enzyme is a well-characterized target for electrophiles and becomes easily inactivated by nitrosylation, oxidation or nucleophilic addition.

[2] = tested on: inducible nitric oxide synthase (iNOS); experiment: iNOS induction and nitrite accumulation in activated RAW264.7 cells; type: cell-based, murine; details: RAW264.7 activated with Kdo2 and IFNγ
Method: (§1) FIG. 11 illustrates modulation of anti-oxidant and inflammatory responses by 17-oxoDHA and 17-oxoDPA. RAW264.7 cells were treated with increasing concentration of 17-oxoDHA and 17-oxoDPA. (a) Cells were harvested 1 h after treatment and Nrf2 levels were quantified in nuclear extracts, (b) Cells were harvested 18 h after treatment and HO—I and Nqol (upper band) levels were measured by western blot, (c, d) RAW264.7 cells were treated with increasing concentration of 17-oxoDHA and 17-oxoDP A for 6 h and Kdo2+IFNγ were added. Samples were collected at 12 h. IL-6, MCP-I and IL-IO levels were measured in the cell media by Quantikine ELISA Kit (R&D Systems) and normalized by the total protein content (c); Nitrite levels were measured in the cell media and normalized by the total protein content and iNOS and Cox-2 levels were measured in total cell lysates (d); (e) PPARγ beta-lactamase reporter assays were performed for Rosiglitazone, 17-OxoDPA, 17-OxoDHA, 15d-PGJ2, 17-hydroxyDHA, DPA, and DHA with concentrations ranging from 0.5-10,000 nM.
For activation experiments RAW 264.7 cells were seeded, incubated overnight, and treated at approximately 80% confluence with the indicated compounds 47. Non-activated controls were treated with vehicle alone. During activation, cells were maintained in an activation medium (SMEM) of Minimum Essential Medium Eagle (Cellgro, 17-305)+2% FBS supplemented with L-glutamine (584 mg/L), Na-pyruvate (110 mg/L) and Hepes (3.57 g/L, pH 7.4). For inhibition studies, inhibitors were added to the medium at the time of activation and MTT assays were used to confirm cell viability. Cells were harvested 20 h post activation (unless otherwise indicated) in 50 mM phosphate buffer (pH 7.4) and snap frozen in liquid N2. […]
(§2) Protein concentrations of samples were measured by BCA assay (Pierce). […] Actin (detected by Sigma A2066) was used as loading control. […]
(§3) Total nitrite and nitrate concentration was measured in cell culture media by Griess reaction using the Nitrate/Nitrite Colorimetric Assay Kit (Cayman Chemical).

PPARγ = target: T1, PPARγ (Homo sapiens, UniProt P37231); experiment: PPARγ beta-lactamase reporter assay; type: cell-based; details: concentrations 0.5-10,000 nM, read-out: EC50 PPARγ activation
T1 sequence (P37231 1-505): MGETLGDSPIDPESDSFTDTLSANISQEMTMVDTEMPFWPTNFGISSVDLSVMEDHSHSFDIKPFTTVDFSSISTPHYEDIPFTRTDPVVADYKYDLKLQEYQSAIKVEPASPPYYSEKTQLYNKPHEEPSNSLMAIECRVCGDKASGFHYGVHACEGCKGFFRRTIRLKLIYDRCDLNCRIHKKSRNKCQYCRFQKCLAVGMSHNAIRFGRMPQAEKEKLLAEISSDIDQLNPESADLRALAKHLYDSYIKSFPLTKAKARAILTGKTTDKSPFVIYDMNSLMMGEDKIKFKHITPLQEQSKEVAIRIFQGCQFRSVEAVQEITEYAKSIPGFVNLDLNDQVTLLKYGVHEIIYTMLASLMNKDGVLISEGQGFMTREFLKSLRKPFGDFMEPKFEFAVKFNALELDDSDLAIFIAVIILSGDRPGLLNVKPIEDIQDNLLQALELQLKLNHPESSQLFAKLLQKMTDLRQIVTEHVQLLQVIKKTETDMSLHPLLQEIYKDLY
Method: as §1
The observation that oxo-fatty acids, such as 15d-PGJ230, 5-oxoEPA, 6-oxoOTE, and the synthetic 4-oxoDHA31, covalently bind and activate the peroxisome proliferator-activated receptor γ (PPARγ), prompted the present inventors to test the ability of 17-oxoDPA, and 17-oxoDHA to activate PPARγ. Thus PPARγ beta-lactamase reporter assays were performed using Roziglitazone, a potent synthetic PPARγ agonist, was used in the assay as positive control.

RAW264.7 cells [3] = experiment: Cytokine levels (IL-6, MCP-I, IL-10) in activated RAW264.7 cells, ELISA; type: cell-based, murine
Method: as §1
To investigate whether the 17-oxo DHA and 17-oxo DPA played a role in modulating the inflammatory response generated by Kdo2 and IFNγ, the present investigators study the change in levels of cytokines, IL-6, MCP-I and IL-IO in cells exposed to increasing doses of 17-oxo DHA and 17-oxo DPA. […]

RAW264.7 cells [4] = experiment: Nitrite levels in cell media of activated RAW264.7 cells (Griess reaction); type: cell-based, murine; details: 6 h pretreatment, then Kdo2+IFNγ, 12 h
Method: as §1
For activation experiments RAW 264.7 cells were seeded, incubated overnight, and treated at approximately 80% confluence with the indicated compounds 47. […]
as §3

Nrf2 = Nrf2 nuclear accumulation and HO-1/Nqo1 expression, western blot; type: cell-based, murine; details: RAW264.7; Nrf2 at 1 h, HO-1/Nqo1 at 18 h
Method: as §1
As described above, compounds of the invention can react with biological thiols to form reversible covalent adducts. […]
as §2

[5] = RAW264.7 activated with Kdo2 and IFNγ, inhibitor added at activation, 20 h

Chain of GAPDH (P46406 whole entry): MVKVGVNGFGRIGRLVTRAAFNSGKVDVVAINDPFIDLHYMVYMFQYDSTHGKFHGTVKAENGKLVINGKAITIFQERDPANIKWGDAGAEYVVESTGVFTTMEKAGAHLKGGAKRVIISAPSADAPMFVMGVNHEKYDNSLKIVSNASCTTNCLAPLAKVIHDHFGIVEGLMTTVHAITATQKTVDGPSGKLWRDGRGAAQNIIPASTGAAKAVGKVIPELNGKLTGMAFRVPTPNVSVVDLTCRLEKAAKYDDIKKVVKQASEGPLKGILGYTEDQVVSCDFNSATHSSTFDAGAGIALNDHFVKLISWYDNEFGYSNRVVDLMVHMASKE

Structure (SMILES): O=C(O)Cc1ccccc1Nc1c(Cl)cccc1Cl [diclofenac]
effect on EFAD formation (RAW264.7 cells [1]; [5]): completely abolish

Structure (SMILES): CC(C)c1ccc2c(c1)c(SC(C)(C)C)c(CC(C)(C)C(=O)O)n2Cc1ccc(Cl)cc1 [MK886]
effect on EFAD formation (RAW264.7 cells [1]; [5]): no significant effect

adduct formation with GAPDH residues (GAPDH): covalently bind Cys and His residues | pEC50 (PPARγ): ~7.40
Structure (SMILES): CC/C=C\CC(=O)C=C/C=C\C/C=C\C/C=C\CCCCCC(=O)O [17-oxoDPA, 17-oxo-(7Z,10Z,13Z,15A,19Z)-docosa-7,10,13,15,19-pentanoic acid]
iNOS induction and accumulation of nitrite in the cell media [2]: dose-dependent inhibition | IFNγ and LPS-induced cytokine production (RAW264.7 cells [3]): inhibited | reduction of nitrite production (RAW264.7 cells [4]; 25 μM): −70% | Nrf2 nuclear accumulation and expression of HO-1 and Nqo1 (Nrf2): promoted dose-dependent Nrf2 nuclear accumulation; also recorded: induced the anti-oxidant response

Structure (SMILES): CS(=O)(=O)Nc1ccc([N+](=O)[O-])cc1OC1CCCCC1 [NS-398]
effect on EFAD formation (RAW264.7 cells [1]; [5]): abolished

Structure (SMILES): CCCCCC=CC=C1C(=O)C=C[C@@H]1CC=CCCCC(=O)O [15d-PGJ2, 15-deoxy-Δ (12,14)-prostaglandin J2, reference compound]
pEC50 (PPARγ): ~7.60

pEC50 (PPARγ): < 5.00
Structure (SMILES): CC/C=C\CC(O)/C=C/C=C\C/C=C\C/C=C\CCCCCC(=O)O (stereo not shown) [17-OH-DPA, 17-OH(7Z,10Z,13Z,15A,19Z)-docosa-7,10,13,15,19-pentanoic acid, reference compound]

adduct formation with GAPDH residues (GAPDH): covalently bind Cys and His residues | pEC50 (PPARγ): ~7.40
Structure (SMILES): CC/C=C\CC(=O)C=C/C=C\C/C=C\C/C=C\C/C=C\CCC(=O)O [17-oxoDHA, 17-oxo-(4Z,7Z,10Z,13Z,15A,19Z)-docosa-4,7,10,13,15,19-hexanoic acid]
iNOS induction and accumulation of nitrite in the cell media [2]: dose-dependent inhibition | IFNγ and LPS-induced cytokine production (RAW264.7 cells [3]): inhibited | reduction of nitrite production (RAW264.7 cells [4]; 20 μM): −70% | Nrf2 nuclear accumulation and expression of HO-1 and Nqo1 (Nrf2): promoted dose-dependent Nrf2 nuclear accumulation; also recorded: induced the anti-oxidant response

Structure (SMILES): CCCCCC#CCC#CCC#CCC#CCCCC(=O)O [ETYA, Eicosatetraynoic acid]
effect on EFAD formation (RAW264.7 cells [1]; [5]): strongly inhibit

Structure (SMILES): CC(C)Cc1ccc(C(C)C(=O)O)cc1 (racemic) [ibuprofen]
inhibition of EFAD production (RAW264.7 cells [1]; [5]): more than 80% | effect on EFAD-I formation (RAW264.7 cells [1]; ibuprofen 100 μM, exception stated in the text): no significant effect

Structure (SMILES): C=C1[C@@H](O)[C@@H]2O[C@]3(CC[C@H](/C=C/[C@@H](C)[C@@H]4CC(C)=C[C@@]5(O[C@H](C[C@@](C)(O)C(=O)O)CC[C@H]5O)O4)O3)CC[C@H]2O[C@@H]1[C@@H](O)C[C@H](C)[C@H]1O[C@@]2(CCCCO2)CC[C@H]1C [OKA, okadaic acid]
effect on EFAD formation (RAW264.7 cells [1]; [5]): slight increase

Structure (SMILES): COc1ccc2c(c1)c(CC(=O)O)c(C)n2C(=O)c1ccc(Cl)cc1 [Indomethacin]
effect on EFAD formation (RAW264.7 cells [1]; [5]): completely abolish
